Assay results taken from US20250283019A1, “NEURO-INTEGRATED BIOREACTOR SYSTEM FOR STUDYING JOINT PAIN AND TREATMENT THEREOF” (University of Pittsburgh - Of the Commonwealth System of …, priority 2022, published 2025).

Legend:
DRG neurons = assay: Spiking of DRG neurons on MEAs in the central chamber of the neu-microJoint bioreactor in response to KCl; assay type: cell-based; details: 30 mM KCl; DRG neurons cultured on MEAs for 4 days; screened with 10, 30 and 50 mM; little to no spontaneous activity at baseline
Protocol: Acutely dissociated DRG neurons are plated in the neural chamber and cultured in 2D at a density of […] to enable recording of neural activity, for example with microelectrodes or MEAs embedded in the floor of the chamber.
To enable recording of neural activity, sensory neurons are plated on a high-density microelectrode array (MEA) embedded in the floor of the neuron bioreactor chamber. Additionally, over the course of 28 days, the neurites reach the synovium, bone, and adipose chambers. In addition, they are functional, as assessed by the ability to maintain physiological cytosolic Ca^2+ concentrations (˜100 nM), a healthy resting membrane potential <−50 mV, and overshooting action potentials in response to physiological stimuli.
DRG neurons cultured on MEAs for 4 days in the central chamber of the neu-microJoint bioreactor were screened with increasing concentrations of KCl (10, 30, and 50 mM) to detect spiking.

sensory neurons = assay: Sensitization of sensory neurons in fura-2 Ca2+ imaging and whole cell patch recordings; assay type: cell-based
From the text: Macrophages can be added to any of the tissue scaffolds in the bioreactor to assess their contribution to joint pain modeled by the neu-microJoint bioreactor. M1 macrophages are a classically activated pro-inflammatory cell type that express pro-inflammatory cytokines, chemokines and many other substances. M2 macrophages are alternatively activated and have an anti-inflammatory pro-tissue regenerative phenotype.

[1] = tested on: cartilage (in the upper part of the bone/cartilage chamber); assay: IL1β OA model in the neu-microJoint bioreactor: mRNA expression in cartilage; assay type: cell-based, human; details: IL1β applied to the synovium flow only; cartilage not directly exposed; 10 ng/mL for 1 week
From the text: For the tissue scaffolds containing synovial cells, adipose cells, chondrocytes, or osteocytes, human mesenchymal stem cells (MSCs, >98% positive to CD73, 90, 105 and >99% negative to CD31, 34, 45, capable of colony formation and trilineage differentiation) or human iPSCs-derived MSCs (iMPCs) are encapsulated in photo-crosslinked gelatin scaffolds, and then subjected to tissue specific media to generate individual synovium, adipose, osteochondral tissues, as well as an additional individual macrophage component. After maturation, these tissue constructs are assembled with the chamber body inserts as described herein and inserted into the outer chambers of the neu-microJoint bioreactor, the fluid conduits are tapped and connected to suitable tubing, and tissue culture medium is pumped through the device to perfuse the tissue scaffolds. […]
Since IL1β that is used to generate the OA model is only applied to the flow of synovium, it indirectly stimulates the other tissues. […] As this may be part of the OA process, retrograde tracers may be used to distinguish activity in neurons innervating the synovium chamber from those innervating other chambers, and corresponding neural activity is monitored.

Q: For `[Cl-].[K+]` [KCl], which “spiking activity of DRG neurons” value (DRG neurons) is on record?
A: Its value is “activity was detected”.

Q: `CCCCC[C@H](O)/C=C/[C@H]1[C@H](O)CC(=O)[C@@H]1C/C=C\CCCC(=O)O` [PGE2, prostaglandin E2] was tested. Which “sensitization of sensory neurons” value (sensory neurons) did it give?
A: The value was “sensitize sensory neurons”.

Q: “IL1β: cytokine used to trigger OA conditions in the outer chambers” was tested. Which “ADAMTS 4 mRNA expression in cartilage” value [1] did it give?
A: The value was “significant increases”.

Q: What about the “MMP13 mRNA expression in cartilage” value [1] of the same compound?
A: The value was “significant increases”.

Q: “IL-6: factor generated by M1 macrophages; cytokine” was tested. Which “sensitization of sensory neurons” value (sensory neurons) did it give?
A: The value was “sensitize sensory neurons”.

Q: Which “sensitization of sensory neurons” value (sensory neurons) does the source give for tumor necrosis factor (TNF)-α here?
A: Its value is “sensitize sensory neurons”.
